In patent US12059408B2, “Treatment of cognitive impairment associated with schizophrenia” (Boehringer Ingelheim International GmbH, priority 2020, dated 2024):

Key:
[1] = test system: CSF glycine; assay: Animal cognition tasks with CSF glycine and CSF compound levels; assay type: in vivo; conditions: animals
[2] = as above; assay type: in vivo; conditions: animals, efficacious doses
[3] = test system: patients with mild to moderate dementia due to AD; assay: AD trial: cognition by ADAS-Cog11, compound I vs placebo; assay type: in vivo, human; conditions: for Change from baseline in ADAS-Cog11 total score at Week 12, adjusted mean / Change from baseline in ADAS-Cog11 total score at Week 12, comparison vs. placebo, adjusted mean: MMRM, FAS (OC)
Text: This trial was designed to investigate whether compound I either alone as monotherapy or as an add-on therapy to acetylcholinesterase inhibitors can improve cognitive symptoms in patients with AD.
The primary endpoint was change from baseline in ADAS-Cog11 (Alzheimer's Disease Assessment Scale-cognitive subscale) total score after 12-week treatment. (Lower values in the ADAS-Cog11 score indicate better cognitive function.)
• 1) Diagnosis of mild-to-moderate Alzheimer's Disease Dementia according to the recommendations from the National Institute on Aging-Alzheimer's Association workgroups on diagnostic guidelines for Alzheimer's disease. • 2) Male or female patients at least 55 years of age. Patients older than 85 years could be included based on an acceptable general health status, (e.g. concomitant diseases, physical capability to follow the required study procedures (visits etc.)) at discretion of the investigator • 3) MMSE score of 15-26 at screening (Visit 1). • 4) Concomitant use of AChEIs allowed but not required. Key Exclusion Criteria • 1) Dementia secondary to disorders other than Alzheimer's Disease Dementia. • 2) Any central nervous system disease other than AD which according to the investigator may be associated with worsening of cognition. • 3) Any suicidal behaviour in the past 2 years (i.e. actual attempt, interrupted attempt, aborted attempt, or preparatory acts or behaviour). • 4) Any suicidal ideation of type 4 or 5 in the C-SSRS in the past 3 months (i.e. active suicidal thought with intent but without specific plan, or active suicidal thought with plan and intent). • 5) Previous participation in investigational drug studies of dementia of Alzheimer's Type within three months prior to screening. Patients having received any active treatment in studies targeting disease modification of AD are excluded.
Patients eligible for the trial were randomly assigned, in a 1:1:1:1:1 ratio to either • 2 mg compound I • 5 mg compound I • 10 mg compound I • 25 mg compound I • Placebo
An MCPMod approach combined with MMRM was used to test for the proof of concept in this trial.
Patients in the FAS were analysed according to the ITT principle, i.e. according to their randomised trial medication. The FAS was used for analyses of efficacy.
The primary endpoint was the change from baseline in ADAS-Cog11 total score after 12 weeks of treatment. The analyses for PoC and dose-finding were done using the MCPmod technique for MMRM.
Model includes fixed, categorical factors of planned treatment (p-value=0.3425), analysis visit (p-value=0.7890), baseline MMSE stratification factor (≥20, <20) (p-value≤0.0001), and planned treatment by analysis visit interaction (p-value=0.7534), as well as the continuous fixed covariate of baseline value (p-value≤0.0001) and baseline value by analysis visit interaction (p-value=0.1185).

C[C@@H](Oc1ccc(S(C)(=O)=O)cc1C(=O)N1C[C@@H]2C[C@]2(c2cc(C(F)(F)F)on2)C1)C(F)(F)F [compound I, [5-(methylsulfonyl)-2-{[(2R)-1,1,1-trifluoropropan-2-yl]oxy}phenyl] {(1R,5R)-1-[5-(trifluoromethyl)-1,2-oxazol-3-yl]-3-azabicyclo[3.1.0]hex-3-yl}methanone]
Increase of CSF glycine at doses efficacious in animal cognition tasks [1]: approximately 50% | CSF levels of compound I required for efficacy [2]: 1-2 × GlyT1 IC50 | Change from baseline in ADAS-Cog11 total score at Week 12, adjusted mean ([3]; 2 mg once daily oral): −0.02 | Change from baseline in ADAS-Cog11 total score at Week 12, comparison vs. placebo, adjusted mean ([3]; 2 mg): 0.05 | Change from baseline in ADAS-Cog11 total score at Week 12, adjusted mean ([3]; 5 mg once daily oral): 0.23 | Change from baseline in ADAS-Cog11 total score at Week 12, comparison vs. placebo, adjusted mean ([3]; 5 mg): 0.30 | Change from baseline in ADAS-Cog11 total score at Week 12, adjusted mean ([3]; 10 mg once daily oral): 0.69 | Change from baseline in ADAS-Cog11 total score at Week 12, comparison vs. placebo, adjusted mean ([3]; 10 mg): 0.76 | Change from baseline in ADAS-Cog11 total score at Week 12, adjusted mean ([3]; 25 mg once daily oral): −0.08 | Change from baseline in ADAS-Cog11 total score at Week 12, comparison vs. placebo, adjusted mean ([3]; 25 mg): −0.02 | Dose-response of change from baseline in ADAS-Cog11 total score at Week 12 (MCPmod, 6 models) ([3]; 2 to 25 mg): no dose response relation was observed | Secondary and further endpoints: ADCS-ADL, CIBIC+, cognitive composite, COWAT, VFT, Coding, Digit Span Backwards ([3]; change from baseline): no treatment differences indicative of a benefit were found | Improvement of cognition in patients suffering from Alzheimer's disease ([3]; same doses regimen as CIAS): ineffective
